Reference: ChEMBL document CHEMBL1154194, “Glucose-containing flavones--their synthesis and antioxidant and neuroprotective activities” (Bioorg Med Chem Lett, 2009)

Tests used:
[1] = Antioxidant activity assessed as inhibition of xanthine/xanthine oxidase system-induced superoxide anion radical scavenging activity after 20 mins; assay type: functional
Rattus norvegicus = species: Rattus norvegicus; test: (§1) Neuroprotective activity against H2O2-induced neuronal damage in Sprague-Dawley rat cerebral cortical cells after 20 to 24 hrs by MTT assay; assay type: functional
[2] = as §1; assay type: functional
Liver = test: Antioxidant activity in rat liver homogenate assessed as inhibition of iron-ascorbic acid mix-induced lipid peroxidation by TBARS assay; assay type: functional, tissue-based
[3] = tested on: Radical scavenging activity; test: Antioxidant activity assessed as DPPH radical scavenging activity after 30 mins; assay type: functional

O=C(COc1cc(O)c2c(=O)cc(-c3ccc(O)c(O)c3)oc2c1)OC[C@@H]1OC(O)[C@@H](O)[C@H](O)[C@H]1O (stereo partly specified)
IC50 [1]: 6.22 µM | Activity (Rattus norvegicus): Dose-dependent effect | IC50 [2]: 12.7 µM | IC50 (Liver): 47.9 µM | IC50 [3]: 16.7 µM

O=C1O[C@H]([C@@H](O)CO)C(O)=C1O [ASCORBIC ACID]
IC50 [1]: > 300 µM | IC50 (Liver): > 300 µM | IC50 [3]: 41 µM

COc1c(-c2ccc(O)c(O)c2)oc2cc(O)cc(O)c2c1=O [3-O-METHYLQUERCETIN]
IC50 [1]: 17.4 µM | IC50 [2]: 3.5 µM | IC50 (Liver): 19 µM | IC50 [3]: 14.2 µM

COc1c(-c2ccc(O)c(O)c2)oc2cc(OCCOC[C@@H]3OC(O)[C@@H](O)[C@H](O)[C@H]3O)cc(O)c2c1=O (stereo partly specified)
IC50 [1]: 12.8 µM | Activity (Rattus norvegicus): Dose-dependent effect | IC50 [2]: 58.4 µM | IC50 (Liver): 78 µM | IC50 [3]: 15.6 µM

O=c1cc(-c2ccc(O)c(O)c2)oc2cc(O)cc(O)c12 [LUTEOLIN]
IC50 [1]: 8.66 µM | IC50 [2]: 3.75 µM | IC50 (Liver): 24.7 µM | IC50 [3]: 16.2 µM

O=c1cc(-c2ccc(O)c(O)c2)oc2cc(OC3O[C@@H](CO)[C@H](O)[C@@H](O)[C@@H]3O)cc(O)c12 (stereo partly specified)
IC50 [1]: 3.28 µM | Activity (Rattus norvegicus): Dose-dependent effect | IC50 [2]: 7.33 µM | IC50 (Liver): 40.4 µM | IC50 [3]: 17.3 µM

COc1c(-c2ccc(O)c(O)c2)oc2cc(OCC(=O)OC[C@@H]3OC(O)[C@@H](O)[C@H](O)[C@H]3O)cc(O)c2c1=O (stereo partly specified)
IC50 [1]: 32.9 µM | Activity (Rattus norvegicus): Dose-dependent effect | IC50 [2]: 5.34 µM | IC50 (Liver): 66.7 µM | IC50 [3]: 19.7 µM

COc1c(-c2ccc(O)c(O)c2)oc2cc(OC3O[C@@H](CO)[C@H](O)[C@@H](O)[C@@H]3O)cc(O)c2c1=O (stereo partly specified)
IC50 [1]: 10.2 µM | Activity (Rattus norvegicus): Dose-dependent effect | IC50 [2]: 30.7 µM | IC50 (Liver): 43.2 µM | IC50 [3]: 16.9 µM

O=c1cc(-c2ccc(O)c(O)c2)oc2cc(OCCOC[C@@H]3OC(O)[C@@H](O)[C@H](O)[C@H]3O)cc(O)c12 (stereo partly specified)
IC50 [1]: 3.53 µM | Activity (Rattus norvegicus): Dose-dependent effect | IC50 [2]: 15.7 µM | IC50 (Liver): 47.8 µM | IC50 [3]: 18.5 µM
